Assay results: ChEMBL document CHEMBL1212910, “Identification of orally available naphthyridine protein kinase D inhibitors” (J Med Chem, 2010)
The source made the active and inactive calls. No cut-off for these calls is given here.

Key:
[1] = AUC (0 to 8 hrs) in Sprague-Dawley rat at 5 mg/kg, po; type: ADME, organism-based; design: time < 8 hr, dose 5 mg/kg, route oral; details: plasma
[2] = target: Calcium/calmodulin-dependent protein kinase type II subunit gamma (Homo sapiens) (UniProt Q13555); test: Inhibition of CaMK2gamma ( assessed as residual activity at 1 uM )
[3] = Oral bioavailability in Sprague-Dawley rat at 5 mg/kg; type: ADME, organism-based; details: in vivo
[4] = Clearance in Sprague-Dawley rat at 2 mg/kg, iv and 5 mg/kg, po; type: ADME, organism-based; details: in vivo
[5] = target: Serine/threonine-protein kinase SIK1 (Homo sapiens) (UniProt P57059); test: Inhibition of SIK1( assessed as residual activity at 1 uM )
[6] = Drug level in Dahl salt-sensitive rat left ventricle at 50 mg/kg, po qd for 14 days; type: ADME, organism-based; design: dose 50 mg/kg, route oral; details: heart left ventricle, read-out: Drug uptake
[7] = Half life in Sprague-Dawley rat at 2 mg/kg, iv and 5 mg/kg, po; type: ADME, organism-based; details: in vivo
[8] = target: Calcium/calmodulin-dependent protein kinase type II subunit beta (Homo sapiens) (UniProt Q13554); test: Inhibition of CaMK2beta ( assessed as residual activity at 1 uM )
[9] = target: T1, Serine/threonine-protein kinase D1 (Homo sapiens) (UniProt Q15139); details: 1000 nM
T1 sequence (whole entry): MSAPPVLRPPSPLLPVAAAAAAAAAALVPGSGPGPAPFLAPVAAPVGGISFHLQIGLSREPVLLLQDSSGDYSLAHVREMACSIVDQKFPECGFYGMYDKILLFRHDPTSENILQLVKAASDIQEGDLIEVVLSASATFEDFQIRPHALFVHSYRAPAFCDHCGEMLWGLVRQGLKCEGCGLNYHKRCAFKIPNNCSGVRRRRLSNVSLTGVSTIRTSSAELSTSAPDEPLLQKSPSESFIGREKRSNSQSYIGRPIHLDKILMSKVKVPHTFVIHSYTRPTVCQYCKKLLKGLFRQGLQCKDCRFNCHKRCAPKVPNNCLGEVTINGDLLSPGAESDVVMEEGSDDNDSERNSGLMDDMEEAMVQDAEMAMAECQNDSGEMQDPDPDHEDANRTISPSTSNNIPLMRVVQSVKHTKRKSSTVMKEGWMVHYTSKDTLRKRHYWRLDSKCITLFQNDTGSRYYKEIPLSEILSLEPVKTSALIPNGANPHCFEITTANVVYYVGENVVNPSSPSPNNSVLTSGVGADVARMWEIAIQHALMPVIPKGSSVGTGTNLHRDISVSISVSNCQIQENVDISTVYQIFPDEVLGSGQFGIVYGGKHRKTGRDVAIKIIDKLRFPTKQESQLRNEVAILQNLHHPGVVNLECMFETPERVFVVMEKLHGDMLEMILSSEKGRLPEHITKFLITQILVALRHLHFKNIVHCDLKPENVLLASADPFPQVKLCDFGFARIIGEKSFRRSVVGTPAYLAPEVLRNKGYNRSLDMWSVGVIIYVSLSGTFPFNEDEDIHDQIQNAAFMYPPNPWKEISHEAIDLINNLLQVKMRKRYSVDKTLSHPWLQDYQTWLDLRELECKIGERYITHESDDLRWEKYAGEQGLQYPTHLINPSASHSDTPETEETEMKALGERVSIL
Description: Inhibition of PKD1 assessed as phosphorylation of GFP-tagged HDAC5 at 1000 nM

[10] = Inhibition of PKD autophosphorylation
[11] = target: Calcium/calmodulin-dependent protein kinase type II subunit delta (Homo sapiens) (UniProt Q13557); test: Inhibition of CaMK2delta ( assessed as residual activity at 1 uM )
[12] = Tmax in Sprague-Dawley rat at 5 mg/kg, po; type: ADME, organism-based; design: dose 5 mg/kg, route oral; details: in vivo
[13] = target: T2, Calcium/calmodulin-dependent protein kinase type IV (Homo sapiens) (UniProt Q16566); test: Inhibition of CaMK4 ( assessed as residual activity at 1 uM )
T2 sequence (whole entry): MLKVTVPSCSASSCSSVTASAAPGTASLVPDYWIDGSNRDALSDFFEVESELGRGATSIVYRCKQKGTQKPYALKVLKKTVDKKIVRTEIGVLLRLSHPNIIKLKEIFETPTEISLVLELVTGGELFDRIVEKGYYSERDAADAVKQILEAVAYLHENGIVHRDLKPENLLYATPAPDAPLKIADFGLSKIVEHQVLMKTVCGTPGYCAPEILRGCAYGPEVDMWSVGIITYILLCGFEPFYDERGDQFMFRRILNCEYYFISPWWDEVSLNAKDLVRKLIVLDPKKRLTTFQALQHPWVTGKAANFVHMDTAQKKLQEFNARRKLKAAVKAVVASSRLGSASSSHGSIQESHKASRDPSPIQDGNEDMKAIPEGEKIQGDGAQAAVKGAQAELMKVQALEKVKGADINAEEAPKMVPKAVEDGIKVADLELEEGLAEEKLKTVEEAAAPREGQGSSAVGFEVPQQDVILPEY

[14] = target: Calcium/calmodulin-dependent protein kinase type 1D (Homo sapiens) (UniProt Q8IU85); test: Inhibition of CaMK1delta ( assessed as residual activity at 1 uM )
[15] = Drug level in Dahl salt-sensitive rat plasma at 50 mg/kg, po qd for 14 days; type: ADME, organism-based; design: dose 50 mg/kg, route oral
Rattus norvegicus [16] = test: Ex vivo inhibition of PKD phosphorylation in PBMC isolated from Dahl salt-sensitive rat at 50 mg/kg, po for 14 days; type: functional, organism-based; design: dose 50 mg/kg
Rattus norvegicus [17] = test: Antihypertrophic activity in Dahl salt-sensitive rat assessed as inhibition of high salt-diet-induced […] in at 50 mg/kg, po for 14 days; type: functional, organism-based; design: dose 50 mg/kg
[18] = Volume of distribution at steady state in Sprague-Dawley rat at 2 mg/kg, iv and 5 mg/kg, po; type: ADME, organism-based; details: in vivo, read-out: Vdss

Calcium/calmodulin-dependent protein kinase type II subunit beta (Homo sapiens), sequence (Q13554 whole entry): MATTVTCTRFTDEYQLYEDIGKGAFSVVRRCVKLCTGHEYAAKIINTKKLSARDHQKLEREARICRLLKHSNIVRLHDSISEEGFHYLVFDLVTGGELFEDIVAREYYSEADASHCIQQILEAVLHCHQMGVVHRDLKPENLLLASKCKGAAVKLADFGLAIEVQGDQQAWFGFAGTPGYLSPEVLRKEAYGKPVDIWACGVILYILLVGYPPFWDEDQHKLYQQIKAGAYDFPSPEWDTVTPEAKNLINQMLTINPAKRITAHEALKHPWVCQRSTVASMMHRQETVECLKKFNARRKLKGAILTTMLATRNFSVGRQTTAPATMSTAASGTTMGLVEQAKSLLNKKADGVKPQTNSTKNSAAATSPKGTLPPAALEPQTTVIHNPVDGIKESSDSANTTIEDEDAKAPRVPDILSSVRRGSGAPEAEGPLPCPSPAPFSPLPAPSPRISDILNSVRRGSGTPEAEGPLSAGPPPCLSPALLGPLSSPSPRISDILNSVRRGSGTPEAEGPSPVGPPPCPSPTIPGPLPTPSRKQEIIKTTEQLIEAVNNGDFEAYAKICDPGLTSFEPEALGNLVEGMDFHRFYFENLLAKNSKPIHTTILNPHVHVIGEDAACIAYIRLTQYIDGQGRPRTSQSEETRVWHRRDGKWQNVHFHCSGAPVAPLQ
Calcium/calmodulin-dependent protein kinase type II subunit gamma (Homo sapiens), sequence (Q13555 whole entry): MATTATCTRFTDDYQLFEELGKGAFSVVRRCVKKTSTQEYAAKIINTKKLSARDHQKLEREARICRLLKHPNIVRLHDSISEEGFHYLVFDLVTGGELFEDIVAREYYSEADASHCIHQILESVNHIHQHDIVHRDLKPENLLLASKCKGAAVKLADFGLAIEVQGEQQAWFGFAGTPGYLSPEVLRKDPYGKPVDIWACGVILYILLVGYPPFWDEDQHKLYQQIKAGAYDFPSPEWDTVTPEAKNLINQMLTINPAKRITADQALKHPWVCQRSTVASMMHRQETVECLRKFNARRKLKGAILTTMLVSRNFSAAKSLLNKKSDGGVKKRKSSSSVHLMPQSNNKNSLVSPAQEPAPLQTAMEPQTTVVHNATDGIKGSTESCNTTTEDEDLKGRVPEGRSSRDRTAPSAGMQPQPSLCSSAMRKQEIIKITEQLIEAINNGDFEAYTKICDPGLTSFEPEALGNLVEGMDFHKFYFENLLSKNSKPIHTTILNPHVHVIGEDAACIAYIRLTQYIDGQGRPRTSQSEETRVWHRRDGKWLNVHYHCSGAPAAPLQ
Calcium/calmodulin-dependent protein kinase type 1D (Homo sapiens), sequence (Q8IU85 whole entry, looked up): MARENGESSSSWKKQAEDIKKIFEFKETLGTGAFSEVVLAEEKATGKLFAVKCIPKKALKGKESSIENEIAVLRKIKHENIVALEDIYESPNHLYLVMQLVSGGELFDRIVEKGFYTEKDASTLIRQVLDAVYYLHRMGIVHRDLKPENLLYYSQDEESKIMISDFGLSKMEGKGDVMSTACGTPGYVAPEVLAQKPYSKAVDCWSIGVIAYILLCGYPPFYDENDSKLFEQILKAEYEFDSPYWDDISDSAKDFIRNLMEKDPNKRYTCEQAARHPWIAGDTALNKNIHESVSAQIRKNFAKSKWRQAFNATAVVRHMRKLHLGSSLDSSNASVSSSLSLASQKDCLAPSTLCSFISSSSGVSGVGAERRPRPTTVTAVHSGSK
Calcium/calmodulin-dependent protein kinase type II subunit delta (Homo sapiens), sequence (Q13557 whole entry): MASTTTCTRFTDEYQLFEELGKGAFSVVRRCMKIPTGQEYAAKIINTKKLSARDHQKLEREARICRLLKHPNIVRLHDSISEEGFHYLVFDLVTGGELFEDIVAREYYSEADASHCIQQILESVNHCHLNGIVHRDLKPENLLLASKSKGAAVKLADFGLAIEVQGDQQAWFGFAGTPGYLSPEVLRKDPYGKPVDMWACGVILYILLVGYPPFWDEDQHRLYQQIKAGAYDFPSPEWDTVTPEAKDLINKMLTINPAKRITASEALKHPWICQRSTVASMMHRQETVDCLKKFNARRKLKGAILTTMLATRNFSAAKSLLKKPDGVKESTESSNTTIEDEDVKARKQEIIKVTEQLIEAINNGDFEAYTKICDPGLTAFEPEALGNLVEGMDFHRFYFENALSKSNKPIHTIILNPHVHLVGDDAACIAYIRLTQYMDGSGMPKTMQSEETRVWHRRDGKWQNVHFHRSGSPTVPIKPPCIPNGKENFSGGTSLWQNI
Serine/threonine-protein kinase SIK1 (Homo sapiens), sequence (P57059 whole entry): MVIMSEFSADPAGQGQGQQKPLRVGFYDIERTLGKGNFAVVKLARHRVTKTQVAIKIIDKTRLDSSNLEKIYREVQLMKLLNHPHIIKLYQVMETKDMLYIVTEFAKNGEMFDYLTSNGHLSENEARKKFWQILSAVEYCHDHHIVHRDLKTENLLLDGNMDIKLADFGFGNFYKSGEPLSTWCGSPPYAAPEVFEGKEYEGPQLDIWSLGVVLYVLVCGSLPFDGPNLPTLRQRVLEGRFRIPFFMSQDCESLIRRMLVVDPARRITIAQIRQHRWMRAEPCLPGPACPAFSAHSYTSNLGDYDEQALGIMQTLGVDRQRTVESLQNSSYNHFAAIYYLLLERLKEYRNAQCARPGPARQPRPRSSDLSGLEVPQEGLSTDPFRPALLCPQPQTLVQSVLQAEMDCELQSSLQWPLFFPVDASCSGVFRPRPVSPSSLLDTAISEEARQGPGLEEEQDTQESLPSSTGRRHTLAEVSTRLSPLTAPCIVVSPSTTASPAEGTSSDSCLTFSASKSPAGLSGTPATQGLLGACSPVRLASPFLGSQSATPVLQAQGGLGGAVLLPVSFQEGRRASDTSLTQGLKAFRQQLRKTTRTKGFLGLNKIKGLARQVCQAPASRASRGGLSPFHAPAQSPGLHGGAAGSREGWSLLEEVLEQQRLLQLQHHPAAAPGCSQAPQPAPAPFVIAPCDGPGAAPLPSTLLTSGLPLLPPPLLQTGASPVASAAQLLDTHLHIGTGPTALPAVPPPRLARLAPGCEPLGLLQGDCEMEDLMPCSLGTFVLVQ

Row | AUC(0-t) at 8 h [1] [µM·h] | Activity [2] [%] | bioavailability [3] [%] | clearance [4] [mL/min/kg] | Activity [5] [%] | concentration at 336 h [6] [nM] | half-life [7] [h] | Activity [8] [%] | inhibition [9] | inhibition [10] | Activity [11] [%] | Tmax [12] [h] | Activity [13] [%] | Activity [14] [%] | concentration at 336 h [15] [nM] | Vd [18] [L/kg] | Structure (SMILES) | inhibition (Rattus norvegicus [16]) | inhibition (Rattus norvegicus [17])
1 | 0.633 | 96 | 23 | 61 | 99 | 2020 | 5.4 | 73 | Active | Dose-dependent effect | 91 | 0.5 | 100 | 100 | 1650 | 7 | CC(C)NC(=O)C1CCN(c2nc(-c3ccnc(NC4CCOCC4)c3)cc3cnccc23)CC1 | Active | inactive
2 | 0.193 | 26 | 4 | 32 | 86 | 59700 | 5.2 | 13 | Active | Dose-dependent effect | 45 | 0.25 | 100 | 67 | 541 | 12 | c1cc2c(N3CCNCC3)nc(-c3ccnc(NC4CCCCC4)c3)cc2cn1 | Active | inactive
